Laboratory results from US7897602B2, “Indolinone compounds as kinase inhibitors” (Development Center for Biotechnology, priority 2009, dated 2011).

How the values were obtained:
c-Met kinase = target: T1, c-Met kinase (Homo sapiens, UniProt P08581); assay: c-Met kinase assay (33P incorporation into Poly(Glu-Tyr)); format: biochemical; conditions: 500 nM test compound
T1 construct: recombinant N-terminal 6×His-tagged c-Met kinase domain construct expressed from baculovirus; 6xHis (N); made in house
T1 sequence (P08581 1078-1345 limits assumed): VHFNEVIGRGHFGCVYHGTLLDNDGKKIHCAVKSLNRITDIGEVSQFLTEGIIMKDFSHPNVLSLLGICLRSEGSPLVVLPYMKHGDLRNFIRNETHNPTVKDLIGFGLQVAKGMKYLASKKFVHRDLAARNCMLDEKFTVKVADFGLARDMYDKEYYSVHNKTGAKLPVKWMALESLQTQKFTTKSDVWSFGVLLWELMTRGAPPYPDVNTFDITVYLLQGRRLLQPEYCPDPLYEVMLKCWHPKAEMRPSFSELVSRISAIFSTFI
Outline: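 Single-concentration test (500 nM compound) at 30° C for 30 min, pH 7.0 MOPS buffer with 100 μM ATP and [33P]-γ-ATP. Enzyme was baculovirus-expressed 6×His c-Met kinase domain (5 ng), substrate Poly(Glu-Tyr) 4:1. Inhibition percentage derived from filter-bound counts relative to DMSO control.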

[1] = Body weight of mice in the COLO 205 tumor study; format: in vivo; conditions: NOD/SCID mice with COLO 205 tumors; i.v. 5, 10 or 20 mg/kg qd × 14
Description: (§1) COLO 205 (1×10^6 cell/mouse) tumor cells were subcutaneously injected into the right flank of 5 week old male NOD/SCID mice (BioLASCO, Taiwan). Tumor volume was measured with a digital caliper once tumor was palpable (within 10 to 15 days after implantation). Compound treatment was started after 1-3 weeks when the tumors had reached an average volume of ˜50 to 100 mm^3. Mice were divided into 5 groups as listed in Table 4 below and were given intravenous injections with test compound at different dosage (5 mg/kg, 10 mg/kg, or 20 mg/kg), SU11248 (20 mg/kg, positive control), or vehicle control (DMSO:Cremophor:PBS (pH 7.4)=[…]) one time every day. The test compound, DCB-70055, was formulated in a solution of 5% DMSO, 10% Cremophor, and 85% PBS. The positive control, SU11248, was dissolved in 100% PBS. Body weights of the mice were measured every two to three days and the tumor sizes in different groups of mice were measured by digital caliper every two to three days.

PDGFR-β kinase = target: T2, PDGFR-β kinase (Homo sapiens, UniProt P09619); assay: PDGFR-β kinase assay (33P incorporation into Poly(Glu-Tyr)); format: biochemical; conditions: 500 nM test compound
T2 construct: recombinant N-terminal 6×His-tagged PDGFR-β kinase domain construct expressed by baculovirus; 6xHis (N); made in house
T2 sequence (P09619 600-962 limits assumed): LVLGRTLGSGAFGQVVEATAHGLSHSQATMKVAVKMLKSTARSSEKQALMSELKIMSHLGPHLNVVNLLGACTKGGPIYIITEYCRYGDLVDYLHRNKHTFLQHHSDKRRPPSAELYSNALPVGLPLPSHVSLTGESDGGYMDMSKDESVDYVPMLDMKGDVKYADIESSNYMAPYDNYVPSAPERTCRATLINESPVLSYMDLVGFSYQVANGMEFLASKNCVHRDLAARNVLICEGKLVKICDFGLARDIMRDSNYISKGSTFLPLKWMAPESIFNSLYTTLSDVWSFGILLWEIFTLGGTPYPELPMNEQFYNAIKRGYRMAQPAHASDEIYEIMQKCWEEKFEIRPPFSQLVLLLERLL
Outline: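 His-tagged PDGFR-β kinase domain (55 ng) with Poly(Glu-Tyr) 4:1, 30 μM ATP plus [33P]-γ-ATP, pH 7.0 MnCl2 buffer, and 500 nM compound for 30 min at 30° C. Filter-bound radioactivity counted; inhibition computed relative to DMSO control.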

COLO 205 tumor cells = assay: In vivo anti-cancer activity, COLO 205 subcutaneous tumor model; conditions: COLO 205 s.c. tumors in NOD/SCID mice; i.v. 5, 10 or 20 mg/kg qd × 14
Description: as §1

inhibition at 0.5 µM (c-Met kinase) [%] | inhibition at 0.5 µM (PDGFR-β kinase) [%] | SMILES | weight loss (body weight) [1] | tumor growth in vivo (COLO 205 tumor cells)
21.7 | 83.5 | O=C(O)CCc1c(/C=C2\C(=O)Nc3ccc(F)cc32)[nH]c2c1C(=O)CCC2 [DCB-70055, (Z)-5-fluoro-3-((3-carboxyethyl-4-oxo-4,5,6,7-tetrahydro-1H-indol-2-yl)methylene)indolin-2-one] | without inducing significant weight loss | inhibited tumor growth in vivo
20.9 | 19.7 | CCOC(=O)CCc1c(/C=C2\C(=O)Nc3ccc(NS(=O)(=O)c4ccccc4)cc32)[nH]c2c1C(=O)CCCC2 [DCB-70146, (Z)-ethyl 3-(4-oxo-2-((2-oxo-5-(phenylsulfonamido)indolin-3-ylidene)methyl)-1,4,5,6,7,8-hexahydrocyclohepta[b]pyrrol-3-yl)propanoate] |  | 
0.2 | 17.3 | O=C(O)CCc1c(/C=C2\C(=O)Nc3ccc(NS(=O)(=O)c4ccccc4)cc32)[nH]c2c1C(=O)CCCC2 [DCB-70147, (Z)-3-(4-oxo-2-((2-oxo-5-(phenylsulfonamido)indolin-3-ylidene)methyl)-1,4,5,6,7,8-hexahydrocyclohepta[b]pyrrol-3-yl)propanoic acid] |  | 
